Read-outs that look alike come from different tables or passages of the source.
Experiments:
[1] = cyclic voltammetry, electrooxidation potential; format: physicochemical; settings: vs. Ag/Ag+; acetonitrile, glassy carbon electrode
Experimental: Cyclic voltammetry experiments were carried out using a PARSTAT 2273 electrochemical system. A stationary glassy carbon disk electrode (d = 0.8 mm) served as the working electrode, while the counter electrode was a Pt wire. The oxidation potentials were measured relative to an Ag/Ag^+ reference electrode. Acetonitrile was dried over P2O5 and distilled; the distillate was stored over CaH2 and redistilled immediately prior to use. Recrystallized tetrabutylammonium tetrafluoroborate (TBATFB) was used as a supporting electrolyte at 0.1 M concentration.

IL-6 mRNA = test: LPS-induced IL-6 gene expression in THP-1 macrophages (qRT-PCR); format: cell-based, human; settings: 4 h LPS, LPS-treated cells = 100%; for decrease in IL-6 mRNA: compound 50 µg/mL
Experimental: (§1) The human THP-1 monocyte cell line was obtained from ATCC (American Type Culture Collection). […] The THP-1 monocytes were stimulated to differentiate into macrophages with phorbol 12-myristate 13-acetate (PMA) (50 ng/mL) for 24 h. The medium was exchanged for PMA-free medium for 48 h before the cells were used for experiments.
(§2) The total RNA was isolated from THP-1 cells using TRIzol reagent, according to the manufacturer’s protocol. First-strand cDNA was synthesized from 2 µg of RNA using oligo(dT) primers with RevertAid H Minus kit (Thermo Fisher Scientific, USA). The qRT-PCR procedure was performed using ABsolute Blue QPCR SYBR Green Master Mix reagent (Thermo Fisher Scientific, USA) with a ViiA7 real-time PCR detection system (Applied Biosystems, USA). The primer pairs that were employed for HCA2/GPR109A were forward 5′-[…]-3′ and reverse 5′-[…]-3′; for FFA2/GPR43 were forward 5′-[…]-3′ and reverse 5′-[…]-3′; for FFA3/GPR41 were forward 5′-[…]-3′ and reverse 5′-[…]-3′; for IL-6 were forward 5′-[…]-3′ and reverse 5′-[…]-3′; for MCP-1 were forward 5′-[…]-3′ and reverse 5′-[…]-3′; for TNF-α were forward 5′-[…]-3′ and reverse 5′-[…]-3′; for RPS29 were forward 5′-[…]-3′ and reverse 5′- […]-3′. The mRNA levels were quantified and normalized to the levels of the reference gene RPS29 using the 2^−ΔΔCt method and presented as relative expression compared to the values for untreated cells.

MCP-1 mRNA = test: LPS-induced MCP-1 gene expression in THP-1 macrophages (qRT-PCR); format: cell-based, human; settings: 4 h LPS, LPS-treated cells = 100%; for decrease in MCP-1 mRNA: compound 50 µg/mL
Experimental: as §1, §2

FFA2/GPR43 = target: T1, FFA2/GPR43 (Homo sapiens, UniProt O15552); test: forskolin-stimulated cAMP accumulation assay, Flp-In-293 cells stably expressing FFA2/GPR43; format: cell-based; settings: for inhibition at 50 µM: 50 µM compound, NA = not active up to 50 µM
T1 construct: host or cells: Flp-In-293
T1 sequence (O15552 1-330): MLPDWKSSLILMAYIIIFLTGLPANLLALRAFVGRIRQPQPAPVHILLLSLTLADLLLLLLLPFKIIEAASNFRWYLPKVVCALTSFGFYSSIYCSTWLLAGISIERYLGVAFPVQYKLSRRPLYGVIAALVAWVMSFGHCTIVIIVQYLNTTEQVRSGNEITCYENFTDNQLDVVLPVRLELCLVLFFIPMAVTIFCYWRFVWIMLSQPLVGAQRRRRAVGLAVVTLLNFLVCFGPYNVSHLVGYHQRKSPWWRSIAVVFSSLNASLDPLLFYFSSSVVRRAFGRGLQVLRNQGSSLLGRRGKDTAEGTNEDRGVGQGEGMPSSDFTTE
Experimental: (§3) All of our synthesized compounds were evaluated in forskolin-stimulated cAMP accumulation assay using Flp-In-293 cells stably expressing human FFA2/GPR43, FFA3/GPR41 or HCA2/GPR109A receptors (Table 1, Table 2 and Table 3; Figure 2).
(§4) Flp-In-293 cells (Invitrogen) were used for the generation of stable FFA3/GPR41 and FFA2/GRP43 cell lines using Flp-In System (Invitrogen). Flp-In-293 cells were cultured in Dulbecco’s modified Eagle medium (DMEM) supplemented with 10% fetal bovine serum (FBS), penicillin (100 U/mL), streptomycin (100 µg/mL), and zeocin (100 µg/mL). The cells were co-transfected with pOG44 (Invitrogen) and pcDNA5/FRT-FFA3 or pcDNA5/FRT-FFA2 using TurboFect (Thermo Fisher Scientific), and stable cell lines were generated according to the manufacturer’s protocol (Invitrogen). After transfection, the cells were cultured under selection pressure due to the presence of hygromycin B (100 µg/mL) in DMEM supplemented with 10% FBS, penicillin, and streptomycin.
(§5) For cAMP assay, the cells were distributed into a 384-well white microplate at a density of 12,000 cells per well and stimulated with the indicated compounds in the presence of 3 μM forskolin for 30 min. […] The cells and the compounds were diluted in 1X phosphate-buffered saline (PBS) supplemented with 0.5 mM of 3-isobutyl-1-methylxanthine. The intracellular cAMP levels were measured using a Lance cAMP kit according to the manufacturer’s instructions. The plates were read on a PerkinElmer Victor 3V multilabel plate reader. The cAMP was quantitated in each sample by comparison to a calibration curve of known cAMP quantities provided in the kit.

FFA3/GPR41 = target: T2, FFA3/GPR41 (Homo sapiens, UniProt O14843); test: forskolin-stimulated cAMP accumulation assay, Flp-In-293 cells stably expressing FFA3/GPR41; format: cell-based; settings: for Emax / inhibition at 50 µM: Flp-In-293; for Emax: read-out: FFA3/GPR41 Emax, maximal inhibition of forskolin-stimulated cAMP (converted); for inhibition at 50 µM: 50 µM compound, NA = not active up to 50 µM
T2 construct: host or cells: Flp-In-293
T2 sequence (O14843 1-346): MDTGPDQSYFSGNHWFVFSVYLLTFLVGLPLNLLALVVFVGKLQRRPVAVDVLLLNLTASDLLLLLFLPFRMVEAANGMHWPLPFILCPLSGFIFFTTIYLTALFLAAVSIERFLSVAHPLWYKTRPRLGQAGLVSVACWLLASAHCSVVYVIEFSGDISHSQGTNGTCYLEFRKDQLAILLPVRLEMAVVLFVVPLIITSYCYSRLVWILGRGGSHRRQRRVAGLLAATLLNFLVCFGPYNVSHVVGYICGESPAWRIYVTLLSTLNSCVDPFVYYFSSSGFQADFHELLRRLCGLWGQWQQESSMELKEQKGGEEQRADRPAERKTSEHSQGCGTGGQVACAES
Experimental: as §3, §4, §5

TNF-α mRNA = test: LPS-induced TNF-α gene expression in THP-1 macrophages (qRT-PCR); format: cell-based, human; settings: 4 h LPS, LPS-treated cells = 100%; for decrease in TNF-α mRNA: compound 50 µg/mL
Experimental: as §1, §2

[2] = parameters: method as in PMID 32141297; settings: calculated with ChemDraw Professional Version 16; cited from earlier work
FFA3/GPR41 mRNA = test: FFA3/GPR41 gene expression in LPS-stimulated THP-1 macrophages (qRT-PCR); format: cell-based, human; settings: compound 50 µM; 4 h LPS 1 µg/mL; p < 0.05
Experimental: as §1, §2

HCA2/GPR109A mRNA = test: HCA2/GPR109A gene expression in LPS-stimulated THP-1 macrophages (qRT-PCR); format: cell-based, human; settings: compound 50 µM; 4 h LPS 1 µg/mL; p < 0.05
Experimental: as §1, §2

HCA2/GPR109A = target: T3, HCA2/GPR109A (Homo sapiens, UniProt Q8TDS4); test: forskolin-stimulated cAMP accumulation assay, Flp-In-293 cells stably expressing HCA2/GPR109A; format: cell-based; settings: for Emax / EC50: mean ± SD; for Emax: read-out: HCA2/GPR109A Emax, maximal inhibition of forskolin-stimulated cAMP (converted); for EC50: inhibition of forskolin-stimulated cAMP, read-out: HCA2/GPR109A EC50
T3 construct: expressed in transfected cells; host or cells: Flp-In-293
T3 sequence (Q8TDS4 whole entry): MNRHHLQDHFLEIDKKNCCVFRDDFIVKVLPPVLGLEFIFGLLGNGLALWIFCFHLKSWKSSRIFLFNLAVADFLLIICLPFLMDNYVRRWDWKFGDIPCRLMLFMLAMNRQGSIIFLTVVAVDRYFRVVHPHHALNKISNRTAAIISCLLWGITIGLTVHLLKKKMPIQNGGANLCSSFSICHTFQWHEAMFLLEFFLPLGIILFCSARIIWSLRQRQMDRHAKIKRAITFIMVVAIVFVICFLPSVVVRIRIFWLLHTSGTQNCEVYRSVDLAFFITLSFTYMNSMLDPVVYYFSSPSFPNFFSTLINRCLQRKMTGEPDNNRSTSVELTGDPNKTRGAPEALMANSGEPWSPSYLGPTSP
Experimental: as §3
Flp-In-293 cells stably expressing human HCA2/GPR109A receptor (laboratory collection) were grown in DMEM medium supplemented with 10% FBS, penicillin, streptomycin, and hygromycin B (100 µg/mL). All cells were cultured at 37 °C in a humidified incubator containing 5% CO2.
as §5

FFA2/GPR43 mRNA = test: FFA2/GPR43 gene expression in LPS-stimulated THP-1 macrophages (qRT-PCR); format: cell-based, human; settings: propionate 1 mM; 4 h LPS 1 µg/mL; not statistically significant (p > 0.05)
Experimental: as §1, §2

[3] = inhibition of forskolin-stimulated cAMP, absence of propionate, mean ± SD, read-out: FFA3/GPR41 EC50
[4] = presence of 5 µM propionate, read-out: FFA3/GPR41 EC50 in the presence of propionate

Row | SMILES | El.ox. pot. (first, lower potential) [1] [V] | El.ox. pot. (second, higher potential) [1] [V] | decrease in IL-6 mRNA (IL-6 mRNA) [%] | decrease in MCP-1 mRNA (MCP-1 mRNA) [%] | Emax (FFA3/GPR41; mean ± SD) [%] | EC50 (FFA3/GPR41; [3]) [nM] | EC50 (FFA3/GPR41; [4]) [nM] | decrease in TNF-α mRNA (TNF-α mRNA) [%] | logP [2] | LPS-stimulated FFA3/GPR41 mRNA level (FFA3/GPR41 mRNA) | El.ox. pot. (single value) [1] [V] | LPS-stimulated HCA2/GPR109A mRNA level (HCA2/GPR109A mRNA) | Emax (HCA2/GPR109A; HCA2) [%] | EC50 (HCA2/GPR109A) [nM] | inhibition at 50 µM (FFA2/GPR43; Flp-In-293) [%] | further results
1 | CC1=C(C(=O)Nc2ccccc2C)C(c2cccs2)C2=C(CCCC2=O)N1 (stereo not drawn) [1-1] | 1.19 | 1.64 | 67 ± 1 | 53 ± 5 | 96 | 1790 ± 300 | 640 ± 200 | 59 ± 10 | 2.65 | significantly increased |  |  |  |  |  | activity towards FFA2/GPR43 (in words) (FFA2/GPR43; cAMP assay): lacked activity
2 | CC1=C(C(=O)Nc2ccccc2C)C(c2ccco2)C2=C(CCCC2=O)N1 (stereo not drawn) [1-2] | 1.19 | 1.99 | 74 ± 1 | 67 ± 10 | 93 | 610 ± 90 | 580 ± 30 | 64 ± 13 | 2.18 | significantly increased |  |  |  |  |  | 
3 | CC1=C(C(=O)Nc2cc(Cl)ccc2Cl)C(c2ccco2)C2=C(CCCC2=O)N1 (stereo not drawn) [1-3] |  |  |  |  | 99 | 320 ± 50 | 100 ± 20 |  | 2.90 |  |  |  |  |  |  | 
4 | CC1=C(C(=O)Nc2ccc(Cl)cc2Cl)C(c2ccco2)C2=C(CCCC2=O)N1 (stereo not drawn) [1-4, N-(2,4-Dichlorophenyl)-4-(furan-2-yl)-2-methyl-5-oxo-1,4,5,6,7,8-hexahydroquinoline-3-carboxamide] | 1.24 | 1.67 | 64 ± 5 | 37 ± 6 | 86 | 230 ± 70 | 81 ± 40 | 50 ± 2 |  |  |  |  |  |  |  | 
5 | O=c1[nH]c(=O)c2c(CCCCCl)cc(=O)oc2[nH]1 [2-7, 5-(4-Chlorobutyl)-1H-pyrano[2,3-d]pyrimidine-2,4,7-trione] |  |  | 74 ± 3 | 50 ± 5 | 89 | 220 ± 30 |  | 48 ± 11 |  | significantly increased | 1.94 | significantly reduced | 98 | 54 ± 6 |  | Emax (FFA2/GPR43; Flp-In-293, mean ± SD, read-out: FFA2/GPR43 Emax, maximal inhibition of forskolin-stimulated cAMP (converted)): 88%; EC50 (FFA2/GPR43; inhibition of forskolin-stimulated cAMP, mean ± SD): 380 ± 60 nM
6 | O=C(CSc1nc(=O)c2c(CCCCCl)cc(=O)oc2[nH]1)OCc1ccccc1 [3-3] |  |  | 65 ± 2 | 49 ± 5 |  |  |  | 53 ± 9 |  | significantly increased |  | significantly reduced | 85 | 17000 ± 3000 | 66 ± 6 | inhibition at 50 µM (FFA3/GPR41): 72 ± 2%
7 | CC(Sc1nc(=O)c2c(CCCCCl)cc(=O)oc2[nH]1)C(=O)c1ccc(OCc2ccccc2)cc1 (stereo not drawn) [3-4, 2-[2-(4-Benzyloxy-phenyl)-1-methyl-2-oxo-ethylsulfanyl]-5-(4-chlorobutyl)-1H-pyrano[2,3-d]pyrimidine-4,7-dione] |  |  | 61 ± 1 | 41 ± 1 | 95 | 380 ± 100 |  | 58 ± 10 |  |  | 1.98 | significantly reduced |  |  | 49 ± 2 | inhibition at 50 µM (HCA2/GPR109A; HCA2, 50 µM compound, NA = not active up to 50 µM): 33 ± 16%
8 | NC(=O)CSc1nc(=O)c2c(CCCCCl)cc(=O)oc2[nH]1 [3-5, 2-[5-(4-Chlorobutyl)-4,7-dioxo-1,7-dihydro-4H-pyrano[2,3-d]pyrimidin-2-ylsulfanyl]-acetamide] |  |  |  |  |  |  |  |  |  |  | 1.93 |  | 87 | 62000 ± 10000 | 42 ± 2 | inhibition at 50 µM (FFA3/GPR41): 20 ± 4%
9 | CCC(=O)O [propionate, reference compound] |  |  |  |  |  |  |  |  |  |  |  |  |  |  |  | downregulation of LPS-induced IL-6 mRNA (IL-6 mRNA; propionate 1 mM): 66 ± 5%; downregulation of LPS-induced MCP-1 mRNA (MCP-1 mRNA; propionate 1 mM): 33 ± 2%; downregulation of LPS-induced TNF-α mRNA (TNF-α mRNA; propionate 1 mM): 42 ± 4%; LPS-upregulated FFA2/GPR43 gene expression (FFA2/GPR43 mRNA): slightly increased

— publication PMC8537386, “The Specificity and Broad Multitarget Properties of Ligands for the Free Fatty Acid Receptors FFA3/GPR41 and FFA2/GPR43 and the Related Hydroxycarboxylic Acid Receptor HCA2/GPR109A” (Pharmaceuticals, 2021)
